Results on one substance are retold here after patent US20210347823A1, “METHODS OF PHYSICOCHEMICAL-GUIDED PEPTIDE DESIGN AND NOVEL PEPTIDES DERIVED THEREFROM” (Massachusetts Institute of Technology, priority 2018, published 2021).

The subject of the test is P. aeruginosa strain PA14. Briefly: Scarification skin infection mouse model. Type of test: in vivo, female CD-1 mice. The procedure: FIGS. 8A-8D. In vivo activity of Pol-CP—NH2 and its analogs. FIG. 8A. Schematic of the experimental design. Briefly, the back of mice was shaved and an abrasion was generated to damage the stratum corneum and the upper layer of the epidermis. Subsequently, an aliquot of 50 μL containing 5×10^7 CFU of P. aeruginosa in PBS was inoculated over each defined area. One day after the infection, peptides (4 μmol L^−1) were administered to the infected area. Animals were euthanized and the area of scarified skin was excised two and four days post-infection (FIG. 8B) homogenized using a bead beater for 20 minutes (25 Hz), and serially diluted for CFU quantification (****p<0.0001). FIG. 8C. Mouse body weight measurements throughout the experiment normalized by the body weight of non-infected mice. […] FIG. 8D. Longer experiment (four days) using a higher concentration (64 μmol L^−1) of peptides Pol-CP—NH2 and [Lys]'-Pol-CP—NH2 (****p<0.0001).
Scarification Skin Infection Mouse Model. P. aeruginosa strain PA14 was grown to an optical density at 600 nm (OD600) of 1 in tryptic soy broth (TSB) medium. […] Animals were euthanized and the area of scarified skin was excised two and four days post-infection, homogenized using a bead beater for 20 minutes (25 Hz), and serially diluted for CFU quantification. […] Statistical significance was assessed using a one-way ANOVA.

Entries after “also recorded” stand apart in the source; their conditions may differ.

For “H-ILGTILKLLKSL-NH2 [Peptide 16, ILGTILKLLKSL-NH2]”, the “in vivo anti-infective activity (CFU)” value (64 μmol L^−1, four days, listed as [Lys]^7-Pol-CP—NH2) is given as “nearly sterilized the infection; also recorded: virtually sterilizing abscess infections”. The “in vivo antimicrobial activity (bacterial load, CFU)” value (single dose of 4 μmol L^−1 one day after infection) is “most active”.
